# Laboratory results as given in patent US20260248879A1, “METHODS OF USING A GCG/GLP1 CO-AGONIST FOR THERAPY” (ELI LILLY AND COMPANY, priority 2022, published 2026).
# Where two headings read alike, the source gives them in different places.
# What was measured:
# patients with T2DM = assay: Phase 1 multiple-ascending dose study in T2DM (Example 1): body weight, waist circumference, body composition; type: in vivo, human
# From the text: This study is a Phase 1, single-site, patient- and investigator-blinded, placebo controlled, randomized, non-crossover, multiple-ascending dose study with titration in each cohort in patients with T2DM to investigate the safety, tolerability, PK, and PD of the GLP-1/glucagon co-agonist peptide of SEQ ID NO:1 (Compound 1) administered as multiple SC injections QW for 12 weeks in Cohort 1 and 16 weeks in Cohort 2.
# The first dosing regimen (also referred to as Cohort 1) is 12 weeks in duration and requires dose increments of 1.5 mg starting from 1.5 mg: • 1.5 mg QW Compound 1 for 4 weeks; • 3.0 mg QW Compound 1 for 4 weeks; and • 4.5 mg QW Compound 1 for 4 weeks.
# The second dosing regimen (also referred to as Cohort 2) is 16 weeks in duration and requires dose increments of 2 mg starting from 2 mg: • 2 mg QW Compound 1 for 3 weeks; • 4 mg QW Compound 1 for 3 weeks; • 6 mg QW Compound 1 for 3 weeks; • 8 mg QW Compound 1 for 3 weeks; and • 10 mg QW Compound 1 for 4 weeks.
# In respect of each dosing regimen, Compound 1 is administered SC into the abdomen of the patient after an overnight fast for at least 8 hours.
# In respect of Cohort 1, body weight is measured at baseline and Days 1, 8, 15, 22, 29, 36, 43, 50, 57, 64, 71 and 78.
# Wherever possible, the same scale is used for all weight measurements throughout the study and the scale is not moved or recalibrated. Subjects are weighed in light clothing at approximately the same time in the morning before dosing (on Day 1 only) and after an overnight fast and evacuation of bowel and the bladder, if possible. During the treatment period, weight is measured twice on each scheduled occasion, with the subject stepping off the scale between measurements. The average of the two weight measurements is recorded in the source document.
# In respect of Cohort 1, waist circumference is measured at baseline and Days 1, 8, 15, 22, 29, 36, 43, 50, 57, 64, 71 and 78.
# Waist circumference is measured at the midpoint between the lower margin of the least palpable rib and the top of the iliac crest. The patient stands with feet close together, arms at the side and body weight evenly distributed, and should wear little clothing. The patient should be relaxed, and the measurements should be taken at the end of a normal expiration. During screening, baseline, the treatment period, and at follow-up, waist circumference will be measured twice on each scheduled occasion. The average of the two measurements will be recorded in the source document.
# individuals with obesity = assay: Example 2 multiple ascending dose study in obesity: body weight, waist circumference; type: in vivo, human
# From the text: This study is designed to evaluate the safety, tolerability, PD and PK of dose to higher doses of Compound 1 in individuals with obesity. The Multiple Ascending Dose (MAD) study is a randomized, investigator- and participant-blind, placebo-controlled, multiple-ascending dose, single- or multi-site study conducted in individuals with obesity (i.e., females or males aged 18-70 years, inclusive, a BMI in the range of 27 kg/m^2 to 50 kg/m^2). Participants should have stable body weight for at least 3 months prior to the initiation of the study. Dose of Compound 1 is assessed with weekly dosing over 20 weeks in 2 cohorts. Each cohort comprises 12 patients-nine patients are administered Compound 1 and three patients are administered placebo. The dose for Cohort 1 is as follows: • 1.5 mg Compound 1 for 2 weeks; • 3.0 mg Compound 1 for 2 weeks; • 6.0 mg Compound 1 for 4 weeks; • 8.0 mg Compound 1 for 4 weeks; • 12.0 mg Compound 1 for 4 weeks; and • 16.0 mg Compound 1 for 4 weeks. The dose for Cohort 2 is as follows: • 2.0 mg Compound 1 for 3 weeks; • 4.0 mg Compound 1 for 3 weeks; • 6.0 mg Compound 1 for 3 weeks; • 8.0 mg Compound 1 for 3 weeks; • 10.0 mg Compound 1 for 2 weeks; • 13.0 mg Compound 1 for 2 weeks, and • 16.0 mg Compound 1 for 4 weeks. Body weight and waist circumference are measured at frequent intervals across dose from Day 1 through Day 138 and for an extended follow-up period after the conclusion of dosing. Mean absolute and percent change in body weight are calculated for Compound 1 and for placebo arms within each cohort and compared to baseline at multiple time points from Day 1 through Day 138 and throughout the extended follow-up period after the conclusion of dosing. Mean absolute and percent change in waist circumference are calculated for Compound 1 and for placebo arms within each cohort and compared to baseline at multiple time points from Day 1 through Day 138 and throughout the extended follow-up period after the conclusion of dosing. While the weight loss described in Example 1 is in a T2D patient population, greater weight loss is typical in an obesity patient population. A multiplier of 1.6-1.8 may be applied to percent weight loss moving from the T2D population to an obesity population.
# [1] = human, in vivo
# From the text: Up to two samples may be collected at additional time points during the study if warranted and agreed upon between both the investigator and sponsor.
# All available PK data is utilized for model development.
# [2] = Cohort 1 (1.5-4.5 mg QW), D78-80, baseline 59.0
# [3] = Cohort 1, escalated to 4.5 mg, Day 78
# [4] = Cohort 2 (2-10 mg QW), D106-108, baseline 60.1
# [5] = Cohort 2, Day 134 (after end of dosing)
# [6] = Cohort 2, Day 162 (after end of dosing)
# [7] = Cohort 2, escalated to 4.0 mg, Day 43
# [8] = Cohort 2, escalated to 6.0 mg, Day 64
# [9] = Cohort 2, escalated to 8.0 mg, Day 85
# [10] = Cohort 2, escalated to 10 mg, Day 109
smiles,measurement,setting,value
CC(C)C[C@H](NC(=O)[C@H](CC(C)C)NC(=O)[C@H](Cc1c[nH]c2ccccc12)NC(=O)[C@H](CCC(=O)O)NC(=O)[C@@H](NC(=O)[C@H](Cc1ccccc1)NC(=O)[C@H](CCC(=O)O)NC(=O)[C@H](CCCCNC(=O)COCCOCCNC(=O)COCCOCCNC(=O)CC[C@H](NC(=O)CCCCCCCCCCCCCCCCCCC(=O)O)C(=O)O)NC(=O)[C@H](C)NC(=O)[C@H](CCCCN)NC(=O)[C@H](CCCCN)NC(=O)[C@H](CCC(=O)O)NC(=O)[C@H](CC(=O)O)NC(=O)[C@H](CC(C)C)NC(=O)[C@H](Cc1ccc(O)cc1)NC(=O)[C@H](CCCCN)NC(=O)[C@H](CO)NC(=O)[C@H](Cc1ccc(O)cc1)NC(=O)[C@H](CC(=O)O)NC(=O)[C@H](CO)NC(=O)[C@@H](NC(=O)[C@H](Cc1ccccc1)NC(=O)[C@@H](NC(=O)CNC(=O)[C@H](CCC(N)=O)NC(=O)C(C)(C)NC(=O)[C@@H](N)Cc1c[nH]cn1)[C@@H](C)O)[C@@H](C)O)C(C)C)C(=O)N[C@@H](CCC(=O)O)C(=O)NCC(=O)NCC(=O)N1CCC[C@H]1C(=O)N[C@@H](CO)C(=O)N[C@@H](CO)C(=O)NCC(N)=O [Compound 1],Lean body Mass,patients with T2DM; [2],59.4 kg
same,Lean body mass,patients with T2DM; [2],59.4 kg
same,% Lean body mass,"patients with T2DM; Cohort 1 (1.5-4.5 mg QW), D78-80, baseline 60.9%",64.3%
same,Waist circumference,"patients with T2DM; Cohort 1 (1.5-4.5 mg QW), D78-80, baseline 110.4",105.7 cm
same,mean change from baseline in body weight,"patients with T2DM; Cohort 1 (1.5-4.5 mg QW), Day 78",−2.88 kg at Day 78
same,"body weight, mean percent change from baseline",patients with T2DM; [3],−3.03%
same,"waist circumference, approximate reduction from baseline",patients with T2DM; [3],~3%
same,mean body weight,"patients with T2DM; Cohort 1, escalated to 4.5 mg, Day 78, baseline 97.19",94.0 kg
same,mean waist circumference,"patients with T2DM; Cohort 1, escalated to 4.5 mg, Day 78, baseline 108.66",105.66 cm
same,Lean body Mass,patients with T2DM; [4],56.4 kg
same,Lean body mass,patients with T2DM; [4],56.4 kg
same,% Lean body mass,"patients with T2DM; Cohort 2 (2-10 mg QW), D106-108, baseline 63.0%",67.8%
same,Waist circumference,"patients with T2DM; Cohort 2 (2-10 mg QW), D106-108, baseline 108.6",96.7 cm
same,body weight decrease from baseline compared to placebo,"patients with T2DM; Cohort 2 (2-10 mg QW), Day 50 through Day 162",statistically significant decreases
same,mean change from baseline in body weight,"patients with T2DM; Cohort 2 (2-10 mg QW), Day 109",−10.73 kg at Day 109.
same,mean body weight,"patients with T2DM; Cohort 2, Day 134 (after end of 16 weeks dosing), baseline 94.9",84.05 kg
same,"body weight, mean percent change from baseline",patients with T2DM; [5],−11.14%
same,"waist circumference, approximate reduction from baseline",patients with T2DM; [5],~9%
same,mean waist circumference,"patients with T2DM; Cohort 2, Day 134 (after end of dosing), baseline 106.93",97.59 cm
same,"body weight, mean percent change from baseline",patients with T2DM; [6],−6.56%
same,"waist circumference, approximate reduction from baseline",patients with T2DM; [6],~4%
same,mean body weight,"patients with T2DM; Cohort 2, Day 162 (after end of dosing), baseline 94.9",88.96 kg
same,mean waist circumference,"patients with T2DM; Cohort 2, Day 162 (after end of dosing), baseline 106.93",102.79 cm
same,"body weight, mean percent change from baseline",patients with T2DM; [7],−4.04%
same,"waist circumference, approximate reduction from baseline",patients with T2DM; [7],~3%
same,mean body weight,"patients with T2DM; Cohort 2, escalated to 4.0 mg, Day 43, baseline 94.9",90.38 kg
same,mean waist circumference,"patients with T2DM; Cohort 2, escalated to 4.0 mg, Day 43, baseline 106.93",103.38 cm
same,"body weight, mean percent change from baseline",patients with T2DM; [8],−7.07%
same,"waist circumference, approximate reduction from baseline",patients with T2DM; [8],~5%
same,mean body weight,"patients with T2DM; Cohort 2, escalated to 6.0 mg, Day 64, baseline 94.9",87.69 kg
same,mean waist circumference,"patients with T2DM; Cohort 2, escalated to 6.0 mg, Day 64, baseline 106.93",101.31 cm
same,"body weight, mean percent change from baseline",patients with T2DM; [9],−9.05%
same,"waist circumference, approximate reduction from baseline",patients with T2DM; [9],~8%
same,mean body weight,"patients with T2DM; Cohort 2, escalated to 8.0 mg, Day 85, baseline 94.9",85.88 kg
same,mean waist circumference,"patients with T2DM; Cohort 2, escalated to 8.0 mg, Day 85, baseline 106.93",98.58 cm
same,"body weight, mean percent change from baseline",patients with T2DM; [10],−12.71%
same,"waist circumference, approximate reduction from baseline",patients with T2DM; [10],~10%
same,mean body weight,"patients with T2DM; Cohort 2, escalated to 10 mg, Day 109, baseline 94.9",82.55 kg
same,mean waist circumference,"patients with T2DM; Cohort 2, escalated to 10 mg, Day 109, baseline 106.93",96.56 cm
same,body weight reduction,patients with T2DM; dose 10 mg or greater,greater than 12%
same,body weight reduction,patients with T2DM; dose greater than 6 mg,greater than 9%
same,reduction in waist circumference,patients with T2DM; dose greater than 6.0 mg,greater than 5%
same,mean waist circumference change,"individuals with obesity; Ex. 2 Cohort 1, Day 85/12 weeks (after 4 weeks of 8 mg), placebo +0.04%",−5.2%
same,mean percent change from baseline in body weight,"individuals with obesity; Ex. 2 Cohort 1, Day 113/16 weeks, after 4 weeks of 12 mg, placebo +0.7%",−15.4%
same,mean waist circumference change,"individuals with obesity; Ex. 2 Cohort 1, Day 113/16 weeks, after 4 weeks of 12 mg, placebo +1.3%",−6.3%
same,mean waist circumference change,"individuals with obesity; Ex. 2 Cohort 1, Day 138/20 weeks, after 4 weeks of 16 mg, placebo +0.4%",−11.5%
same,mean waist circumference change,"individuals with obesity; Ex. 2 Cohort 2, Day 85/12 weeks (after 8 mg), placebo +0.04%",−7.6%
same,mean percent change from baseline in body weight,"individuals with obesity; Ex. 2 Cohort 2, Day 85/12 weeks (after 8 mg), placebo +0.2%",−11.7%
same,mean percent change from baseline in body weight,"individuals with obesity; Ex. 2 Cohort 2, Day 99/14 weeks, after 2 weeks of 10 mg, placebo +0.07%",−13.4%
same,mean waist circumference change,"individuals with obesity; Ex. 2 Cohort 2, Day 99/14 weeks, after 2 weeks of 10 mg, placebo +1.0%",−6.8%
same,mean percent change from baseline in body weight,"individuals with obesity; Ex. 2 Cohort 2, Day 113/16 weeks, after 2 weeks of 13 mg, placebo +0.7%",−16.2%
same,mean waist circumference change,"individuals with obesity; Ex. 2 Cohort 2, Day 113/16 weeks, after 2 weeks of 13 mg, placebo +1.3%",−12.6%
same,mean waist circumference change,"individuals with obesity; Ex. 2 Cohort 2, Day 138/20 weeks, after 4 weeks of 16 mg, placebo +0.4%",−16.6%
same,"t1/2, geomean (range)",[1]; 4.5 mg,209 (117 to 362) h
same,"t1/2, geomean (range)",[1]; 10 mg,213 (129 to 366) h
same,"Apparent clearance, CL/F, population mean estimate",[1]; sc,0.0311 L/h
